Assay results published in US10729680B2, “5-substituted 2-(morpholin-4-yl)-1,7-naphthyridines” (BAYER PHARMA AKTIENGESELLSCHAFT, priority 2016, dated 2020).

Biological target: full-length human ATR protein (ATR/ATRIP) (Homo sapiens (Human), UniProt Q13535)
Assay: Binding Assay ATR (TR-FRET, tracer A displacement)
Settings: displacement of fluorescent tracer A from GST-ATR/ATRIP
Excerpt: To determine of binding activity of the test compounds, full-length human ATR protein was expressed and purified together with ATRIP as described above. Furthermore, a fluorescently labelled compound (tracer A as described above) was used as a tracer molecule. Detection of the binding event of the tracer was achieved by time-resolved fluorescence energy transfer (TR-FRET). We used an anti-GST-Terbium antibody (CisBio) that binds to the GST-tag at the N-terminus of ATR-kinase. Excitation of Terbium with 337 nm light results in emission of fluorescent light with 545 nm. In case a tetrameric complex has formed (antiGST-Tb+GST-ATR+Strp2-ATRIP+tracer), part of the energy will be transferred from the Terbium to the fluorophore that itself emits light of 570 nm. Displacement of the fluorescent tracer by a test compound leads to a reduction of the TR-FRET-signal.
For the assay 50 nl of a 100-fold concentrated solution of the test compound in DMSO was pipetted into a black low volume 384 well microtiter plate (MTP, Greiner Bio-One, Frickenhausen, Germany). To prepare the ATR-working solution, ATR/ATRIP stock solution was diluted in assay buffer [50 mM HEPES (pH 7.0), 10 mM MgCl2, 1 mM DTT, 0.01% (w/v) Igepal, 0.01% (w/v) BSA] to 4.2 nM protein concentration (concentration may vary from lot to lot of protein preparation). AntiGST-Tb antibody was diluted to 4.2 nM. The ATR-working solution was incubated for 30 min at 22° C. prior to dispensing to pre-form the complex of antiGST-Tb+GST-ATR+ATRIP. Then, 3 μl of the ATR-working solution were added to the test compound and the mixture was incubated for 10 min at 22° C. to allow pre-binding of the test compounds to ATR/ATRIP. Then, 2 μl of a 100 nM solution of tracer A in assay buffer were added to the ATR-working solution. The resulting mixture was incubated for 30 min at 22° C. The measurement of the TR-FRET signal was performed in a standard HTRF-compatible MTP reader instrument (e.g. BMG Pherastar) by recording the fluorescence emissions at 545 nm and 570 nm after excitation at 337-350 nm. The ratio between emission at 570 nm divided by emission at 545 nm was calculated to give the well ratio. The experimental data (well ratios) were normalised by the following way: positive control contained ATR-working solution plus tracer A solution (=0% inhibition), the negative control contained all components except GST-ATR/ATRIP (=100% inhibition). Usually the compounds were tested on the same MTP in 11 different concentrations in the range of 20 μM to 0.1 nM (20 μM, 5.9 μM, 1.7 μM, 0.51 μM, 0.15 μM, 44 nM, 13 nM, 3.8 nM, 1.1 nM, 0.33 nM and 0.1 nM). The dilution series were prepared separately before the assay on the level of the 100 fold concentrated solutions in DMSO by serial 1:3.4 dilutions in duplicate values for each concentration. IC50 values were calculated by a 4 parameter fit using standard software (GraphPad prism or equivalent).

full-length human ATR protein (ATR/ATRIP), sequence (Q13535 other isoform, or with tags, fused parts or gaps): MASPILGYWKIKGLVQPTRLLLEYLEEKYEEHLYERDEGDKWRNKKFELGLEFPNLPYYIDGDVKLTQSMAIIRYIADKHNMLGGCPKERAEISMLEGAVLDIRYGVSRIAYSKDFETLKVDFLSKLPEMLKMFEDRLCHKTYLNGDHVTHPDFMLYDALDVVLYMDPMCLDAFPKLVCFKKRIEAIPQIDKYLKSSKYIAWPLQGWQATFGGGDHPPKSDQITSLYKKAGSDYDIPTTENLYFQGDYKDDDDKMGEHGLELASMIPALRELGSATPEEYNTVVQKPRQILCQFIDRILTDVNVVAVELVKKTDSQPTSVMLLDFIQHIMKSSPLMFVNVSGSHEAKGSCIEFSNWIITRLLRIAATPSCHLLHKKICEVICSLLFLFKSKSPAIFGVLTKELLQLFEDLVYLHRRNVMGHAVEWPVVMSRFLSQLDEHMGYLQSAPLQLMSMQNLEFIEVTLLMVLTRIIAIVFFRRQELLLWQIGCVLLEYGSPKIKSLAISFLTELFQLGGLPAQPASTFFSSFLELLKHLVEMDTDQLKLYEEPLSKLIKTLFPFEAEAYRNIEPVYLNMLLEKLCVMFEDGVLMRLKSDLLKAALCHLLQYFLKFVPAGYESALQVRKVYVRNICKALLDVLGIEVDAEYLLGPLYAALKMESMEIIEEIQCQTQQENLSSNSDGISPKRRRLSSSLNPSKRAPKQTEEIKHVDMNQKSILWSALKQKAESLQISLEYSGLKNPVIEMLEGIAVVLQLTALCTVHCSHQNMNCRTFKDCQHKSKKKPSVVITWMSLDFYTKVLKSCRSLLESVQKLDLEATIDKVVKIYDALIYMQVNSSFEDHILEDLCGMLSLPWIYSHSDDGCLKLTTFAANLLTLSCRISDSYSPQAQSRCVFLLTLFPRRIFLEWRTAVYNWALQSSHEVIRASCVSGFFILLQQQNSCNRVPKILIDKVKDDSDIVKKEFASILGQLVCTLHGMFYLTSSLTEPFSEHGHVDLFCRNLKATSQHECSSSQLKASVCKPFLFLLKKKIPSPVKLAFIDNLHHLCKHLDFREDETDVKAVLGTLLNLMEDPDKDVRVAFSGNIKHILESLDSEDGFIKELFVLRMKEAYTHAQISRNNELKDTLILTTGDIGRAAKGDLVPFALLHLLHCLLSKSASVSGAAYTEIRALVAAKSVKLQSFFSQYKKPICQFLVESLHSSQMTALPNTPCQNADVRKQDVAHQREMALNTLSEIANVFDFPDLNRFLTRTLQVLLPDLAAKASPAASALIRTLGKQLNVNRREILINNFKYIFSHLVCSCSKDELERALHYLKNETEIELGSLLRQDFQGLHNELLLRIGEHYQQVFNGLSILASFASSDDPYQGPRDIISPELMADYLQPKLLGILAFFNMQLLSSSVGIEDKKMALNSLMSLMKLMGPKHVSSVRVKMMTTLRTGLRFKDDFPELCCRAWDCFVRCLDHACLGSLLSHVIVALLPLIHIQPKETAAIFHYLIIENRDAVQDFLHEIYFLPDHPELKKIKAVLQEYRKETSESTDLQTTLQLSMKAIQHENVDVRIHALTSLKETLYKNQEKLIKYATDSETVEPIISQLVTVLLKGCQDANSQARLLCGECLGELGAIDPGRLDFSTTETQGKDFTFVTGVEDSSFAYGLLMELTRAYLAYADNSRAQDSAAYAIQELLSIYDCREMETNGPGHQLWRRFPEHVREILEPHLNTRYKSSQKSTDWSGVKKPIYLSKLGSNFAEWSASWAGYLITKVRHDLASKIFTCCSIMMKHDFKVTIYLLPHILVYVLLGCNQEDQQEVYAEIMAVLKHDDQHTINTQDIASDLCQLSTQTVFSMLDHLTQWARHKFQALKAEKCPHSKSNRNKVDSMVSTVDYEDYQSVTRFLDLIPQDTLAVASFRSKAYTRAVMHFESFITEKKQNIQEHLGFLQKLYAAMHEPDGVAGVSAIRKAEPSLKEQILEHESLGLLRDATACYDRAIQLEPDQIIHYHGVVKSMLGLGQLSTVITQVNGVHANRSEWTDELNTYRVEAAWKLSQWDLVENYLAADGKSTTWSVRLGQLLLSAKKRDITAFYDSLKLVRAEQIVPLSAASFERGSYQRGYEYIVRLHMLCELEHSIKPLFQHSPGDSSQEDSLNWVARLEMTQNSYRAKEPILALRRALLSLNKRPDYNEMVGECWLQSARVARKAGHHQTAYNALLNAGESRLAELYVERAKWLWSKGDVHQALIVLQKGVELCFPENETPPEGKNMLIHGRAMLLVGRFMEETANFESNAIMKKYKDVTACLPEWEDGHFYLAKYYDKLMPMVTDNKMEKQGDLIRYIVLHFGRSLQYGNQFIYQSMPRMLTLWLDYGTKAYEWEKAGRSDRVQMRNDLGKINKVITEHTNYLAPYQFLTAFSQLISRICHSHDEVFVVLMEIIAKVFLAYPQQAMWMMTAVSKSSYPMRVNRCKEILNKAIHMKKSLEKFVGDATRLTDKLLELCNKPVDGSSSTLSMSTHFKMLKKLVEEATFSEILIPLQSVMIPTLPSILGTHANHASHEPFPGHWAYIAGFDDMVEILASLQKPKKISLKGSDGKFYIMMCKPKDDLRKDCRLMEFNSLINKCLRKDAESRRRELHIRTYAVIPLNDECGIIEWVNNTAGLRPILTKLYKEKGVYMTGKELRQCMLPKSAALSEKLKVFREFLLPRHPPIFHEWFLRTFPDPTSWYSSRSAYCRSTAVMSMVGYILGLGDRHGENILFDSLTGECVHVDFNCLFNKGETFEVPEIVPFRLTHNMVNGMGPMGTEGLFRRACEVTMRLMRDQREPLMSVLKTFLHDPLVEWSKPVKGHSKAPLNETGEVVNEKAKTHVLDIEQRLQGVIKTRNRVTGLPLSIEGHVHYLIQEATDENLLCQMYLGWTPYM
full-length human ATR protein (ATR/ATRIP), sequence (Q8WXE1 other isoform, or with tags, fused parts or gaps partner): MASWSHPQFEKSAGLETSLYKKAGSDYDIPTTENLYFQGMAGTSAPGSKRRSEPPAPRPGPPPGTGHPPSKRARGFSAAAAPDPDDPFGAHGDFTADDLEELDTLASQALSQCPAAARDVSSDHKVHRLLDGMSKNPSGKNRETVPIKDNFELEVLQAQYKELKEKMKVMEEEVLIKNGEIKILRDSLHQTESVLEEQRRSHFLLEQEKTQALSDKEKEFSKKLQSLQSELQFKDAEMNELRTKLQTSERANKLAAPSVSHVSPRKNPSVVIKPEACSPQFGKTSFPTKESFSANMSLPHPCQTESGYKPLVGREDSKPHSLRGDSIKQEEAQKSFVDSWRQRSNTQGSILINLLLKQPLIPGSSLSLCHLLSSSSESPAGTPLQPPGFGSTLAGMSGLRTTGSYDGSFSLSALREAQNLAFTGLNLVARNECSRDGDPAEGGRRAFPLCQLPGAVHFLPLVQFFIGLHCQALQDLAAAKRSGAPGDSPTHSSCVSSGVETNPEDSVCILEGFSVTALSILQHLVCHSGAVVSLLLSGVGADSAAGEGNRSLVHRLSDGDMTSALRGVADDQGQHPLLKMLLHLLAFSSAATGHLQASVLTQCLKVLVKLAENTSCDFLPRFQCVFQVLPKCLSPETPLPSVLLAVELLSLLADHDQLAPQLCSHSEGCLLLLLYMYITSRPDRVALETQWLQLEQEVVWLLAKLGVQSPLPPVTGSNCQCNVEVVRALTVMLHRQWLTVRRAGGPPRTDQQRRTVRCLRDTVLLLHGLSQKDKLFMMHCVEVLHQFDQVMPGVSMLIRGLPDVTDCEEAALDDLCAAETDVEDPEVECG

Cc1cnc(-c2ccn[nH]2)c2nc(N3CCOC[C@H]3C)cc(P(C)(C)=O)c12 [Example 18, 4-(dimethylphosphoryl)-5-methyl-2-[(3R)-3-methylmorpholin-4-yl]-8-(1H-pyrazol-5-yl)-1,7-naphthyridine]
IC50: 66.4 nM

Cc1cnc(-c2ccn[nH]2)c2nc(N3CCOC[C@H]3C)cc(P(C)(=O)OCC(C)C)c12 (stereo partly drawn) [Example 19, 2-methylpropyl methyl{5-methyl-2-[(3R)-3-methylmorpholin-4-yl]-8-(1H-pyrazol-5-yl)-1,7-naphthyridin-4-yl}phosphinate]
IC50: 34.9 nM

Cc1cnc(-c2ccn[nH]2)c2nc(N3CCOC[C@H]3C)cc(-c3ccccc3)c12 [Example 20, 5-methyl-2-[(3R)-3-methylmorpholin-4-yl]-4-phenyl-8-(1H-pyrazol-5-yl)-1,7-naphthyridine]
IC50: 24.4 nM

Cc1cnc(-c2ccn[nH]2)c2nc(N3CCOC[C@H]3C)cc(-c3ccc4c(c3)OCCO4)c12 [Example 21, 4-(2,3-dihydro-1,4-benzodioxin-6-yl)-5-methyl-2-[(3R)-3-methylmorpholin-4-yl]-8-(1H-pyrazol-5-yl)-1,7-naphthyridine]
IC50: 17.9 nM

Cc1cnc(-c2ccn[nH]2)c2nc(N3CCOC[C@H]3C)cc(-c3ccc(Cl)cc3Cl)c12 [Example 22, 4-(2,4-dichlorophenyl)-5-methyl-2-[(3R)-3-methylmorpholin-4-yl]-8-(1H-pyrazol-5-yl)-1,7-naphthyridine]
IC50: 16.4 nM

Cc1cnc(-c2ccn[nH]2)c2nc(N3CCOC[C@H]3C)cc(-c3cccc(CO)c3)c12 [Example 23, (3-{5-methyl-2-[(3R)-3-methylmorpholin-4-yl]-8-(1H-pyrazol-5-yl)-1,7-naphthyridin-4-yl}phenyl)methanol]
IC50: 14 nM

Cc1cnc(-c2ccn[nH]2)c2nc(N3CCOC[C@H]3C)cc(-c3ccc(F)cc3)c12 [Example 24, 4-(4-fluorophenyl)-5-methyl-2-[(3R)-3-methylmorpholin-4-yl]-8-(1H-pyrazol-5-yl)-1,7-naphthyridine]
IC50: 34.7 nM

COc1ccc(-c2cc(N3CCOC[C@H]3C)nc3c(-c4ccn[nH]4)ncc(C)c23)cc1 [Example 25, 4-(4-methoxyphenyl)-5-methyl-2-[(3R)-3-methylmorpholin-4-yl]-8-(1H-pyrazol-5-yl)-1,7-naphthyridine]
IC50: 25.4 nM

Cc1cnc(-c2ccn[nH]2)c2nc(N3CCOC[C@H]3C)cc(-c3cc(F)cc(F)c3F)c12 [Example 26, 5-methyl-2-[(3R)-3-methylmorpholin-4-yl]-8-(1H-pyrazol-5-yl)-4-(2,3,5-trifluorophenyl)-1,7-naphthyridine]
IC50: 11.2 nM

COc1ccc(-c2cc(N3CCOC[C@H]3C)nc3c(-c4ccn[nH]4)ncc(C)c23)cn1 [Example 27, 4-(6-methoxypyridin-3-yl)-5-methyl-2-[(3R)-3-methylmorpholin-4-yl]-8-(1H-pyrazol-5-yl)-1,7-naphthyridine]
IC50: 15.4 nM

Cc1cnc(-c2ccn[nH]2)c2nc(N3CCOC[C@H]3C)cc(-c3ccc([S+](C)[O-])cc3)c12 (stereo partly drawn) [Example 29, 5-methyl-2-[(3R)-3-methylmorpholin-4-yl]-4-[4-(methylsulfinyl)phenyl]-8-(1H-pyrazol-5-yl)-1,7-naphthyridine]
IC50: 29.1 nM

COc1cccc(-c2cc(N3CCOC[C@H]3C)nc3c(-c4ccn[nH]4)ncc(C)c23)c1F [Example 30, 4-(2-fluoro-3-methoxyphenyl)-5-methyl-2-[(3R)-3-methylmorpholin-4-yl]-8-(1H-pyrazol-5-yl)-1,7-naphthyridine]
IC50: 17.5 nM

Cc1cnc(-c2ccn[nH]2)c2nc(N3CCOC[C@H]3C)cc(-c3ccccc3S(C)(=O)=O)c12 [Example 31, 5-methyl-2-[(3R)-3-methylmorpholin-4-yl]-4-[2-(methylsulfonyl)phenyl]-8-(1H-pyrazol-5-yl)-1,7-naphthyridine]
IC50: 47.2 nM

Cc1cnc(-c2ccn[nH]2)c2nc(N3CCOC[C@H]3C)cc(-c3ccc(NS(C)(=O)=O)cc3)c12 [Example 32, N-(4-{5-methyl-2-[(3R)-3-methylmorpholin-4-yl]-8-(1H-pyrazol-5-yl)-1,7-naphthyridin-4-yl}phenyl)methanesulfonamide]
IC50: 4.31 nM

Cc1cnc(-c2ccn[nH]2)c2nc(N3CCOC[C@H]3C)cc(C3=CCCC3)c12 [Example 33, 4-(cyclopent-1-en-1-yl)-5-methyl-2-[(3R)-3-methylmorpholin-4-yl]-8-(1H-pyrazol-5-yl)-1,7-naphthyridine]
IC50: 26.5 nM

Cc1cnc(-c2ccn[nH]2)c2nc(N3CCOC[C@H]3C)cc(-c3ccc(C(=O)N(C)C)cc3)c12 [Example 35, N,N-dimethyl-4-{5-methyl-2-[(3R)-3-methylmorpholin-4-yl]-8-(1H-pyrazol-5-yl)-1,7-naphthyridin-4-yl}benzamide]
IC50: 28.8 nM

Cc1cc(-c2cc(N3CCOC[C@H]3C)nc3c(-c4ccn[nH]4)ncc(C)c23)ccc1Cl [Example 36, 4-(4-chloro-3-methylphenyl)-5-methyl-2-[(3R)-3-methylmorpholin-4-yl]-8-(1H-pyrazol-5-yl)-1,7-naphthyridine]
IC50: 456 nM

COc1cccc(-c2cc(N3CCOC[C@H]3C)nc3c(-c4ccn[nH]4)ncc(C)c23)c1OC [Example 37, 4-(2,3-dimethoxyphenyl)-5-methyl-2-[(3R)-3-methylmorpholin-4-yl]-8-(1H-pyrazol-5-yl)-1,7-naphthyridine]
IC50: 13.8 nM

COc1cc(Cl)ccc1-c1cc(N2CCOC[C@H]2C)nc2c(-c3ccn[nH]3)ncc(C)c12 [Example 38, 4-(4-chloro-2-methoxyphenyl)-5-methyl-2-[(3R)-3-methylmorpholin-4-yl]-8-(1H-pyrazol-5-yl)-1,7-naphthyridine]
IC50: 47.9 nM

CSc1ccc(-c2cc(N3CCOC[C@H]3C)nc3c(-c4ccn[nH]4)ncc(C)c23)cc1 [Example 39, 5-methyl-2-[(3R)-3-methylmorpholin-4-yl]-4-[4-(methylsulfanyl)phenyl]-8-(1H-pyrazol-5-yl)-1,7-naphthyridine]
IC50: 31.9 nM

Cc1cnc(-c2ccn[nH]2)c2nc(N3CCOC[C@H]3C)cc(-c3cccc(N(C)C)c3)c12 [Example 40, N,N-dimethyl-3-{5-methyl-2-[(3R)-3-methylmorpholin-4-yl]-8-(1H-pyrazol-5-yl)-1,7-naphthyridin-4-yl}aniline]
IC50: 34.3 nM

Cc1cnc(-c2ccn[nH]2)c2nc(N3CCOC[C@H]3C)cc(-c3cccc(S(C)(=O)=O)c3)c12 [Example 41, 5-methyl-2-[(3R)-3-methylmorpholin-4-yl]-4-[3-(methylsulfonyl)phenyl]-8-(1H-pyrazol-5-yl)-1,7-naphthyridine]
IC50: 24.9 nM

COc1cc(OC)cc(-c2cc(N3CCOC[C@H]3C)nc3c(-c4ccn[nH]4)ncc(C)c23)c1 [Example 42, 4-(3,5-dimethoxyphenyl)-5-methyl-2-[(3R)-3-methylmorpholin-4-yl]-8-(1H-pyrazol-5-yl)-1,7-naphthyridine]
IC50: 112 nM

Cc1cnc(-c2ccn[nH]2)c2nc(N3CCOC[C@H]3C)cc(-c3ccnc4ccccc34)c12 [Example 43, 5-methyl-2-[(3R)-3-methylmorpholin-4-yl]-8-(1H-pyrazol-5-yl)-4-(quinolin-4-yl)-1,7-naphthyridine]
IC50: 36 nM

Cc1cnc(-c2ccn[nH]2)c2nc(N3CCOC[C@H]3C)cc(-c3cccc4[nH]ccc34)c12 [Example 44, 4-(1H-indol-4-yl)-5-methyl-2-[(3R)-3-methylmorpholin-4-yl]-8-(1H-pyrazol-5-yl)-1,7-naphthyridine]
IC50: 35.5 nM

Cc1cnc(-c2ccn[nH]2)c2nc(N3CCOC[C@H]3C)cc(-c3ccc4cc[nH]c4c3)c12 [Example 45, 4-(1H-indol-6-yl)-5-methyl-2-[(3R)-3-methylmorpholin-4-yl]-8-(1H-pyrazol-5-yl)-1,7-naphthyridine]
IC50: 94.7 nM

Cc1cnccc1-c1cc(N2CCOC[C@H]2C)nc2c(-c3ccn[nH]3)ncc(C)c12 [Example 46, 5-methyl-2-[(3R)-3-methylmorpholin-4-yl]-4-(3-methylpyridin-4-yl)-8-(1H-pyrazol-5-yl)-1,7-naphthyridine]
IC50: 7.78 nM
